In ChEMBL document CHEMBL1201862, “PubChem BioAssay data set” (2004):
Activity calls are given as the source filed them.

Columns and labels:
[1] = NIH-3T3 fibroblast cytotoxicity, dose response, cytotoxicity control, cell-based, fluorescence, Alamar Blue, secondary assay (AID 2327); assay type: functional;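 further: NIH-3T3 mouse fibroblasts cultured with fluconazole at 8 µg/mL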
[2] = fluconazole-exposed Candida albicans growth modulators – fluorescence, retest, confirmation (AID 2467); assay type: functional, cell-based
[3] = biological target: T1, Serine/threonine-protein phosphatase (Candida dubliniensis (strain CD36 / CBS 7987 / NCPF 3949 / NRRLY-17841) (Yeast), UniProt B9W6M3); assay: blockers of CaCl2-induced CDRE-lacZ signaling – S. cerevisiae, luminescence, secondary, dose response (AID 2388); assay type: functional, cell-based;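 further: yeast reporter cells carrying a calcineurin-responsive lacZ construct stimulated with calcium chloride; luminescent beta-galactosidase reporter signal in whole cells rather than isolated phosphatase activity; potency for inhibition where a drop in reporter signal means calcineurin blockade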
T1 sequence (B9W6M3 whole entry): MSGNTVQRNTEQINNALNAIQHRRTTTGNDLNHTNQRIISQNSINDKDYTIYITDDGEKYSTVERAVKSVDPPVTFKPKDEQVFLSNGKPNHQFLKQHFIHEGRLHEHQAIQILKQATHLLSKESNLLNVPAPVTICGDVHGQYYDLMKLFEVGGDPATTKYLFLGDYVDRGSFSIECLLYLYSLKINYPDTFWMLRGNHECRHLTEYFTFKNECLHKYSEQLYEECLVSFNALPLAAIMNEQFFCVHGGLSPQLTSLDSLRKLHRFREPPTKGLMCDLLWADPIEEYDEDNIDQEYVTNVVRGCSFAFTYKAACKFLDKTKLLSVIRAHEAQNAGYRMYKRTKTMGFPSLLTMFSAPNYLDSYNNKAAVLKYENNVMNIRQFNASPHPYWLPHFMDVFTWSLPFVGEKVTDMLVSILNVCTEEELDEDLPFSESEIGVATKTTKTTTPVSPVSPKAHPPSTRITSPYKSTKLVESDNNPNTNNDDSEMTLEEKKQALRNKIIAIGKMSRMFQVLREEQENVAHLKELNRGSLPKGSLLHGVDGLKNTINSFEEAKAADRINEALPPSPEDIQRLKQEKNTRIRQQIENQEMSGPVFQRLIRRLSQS

[4] = THP-1 cell cytotoxicity, dose response, cytotoxicity control for non-replicating M. tuberculosis project (AID 489025); assay type: functional
[5] = HepG2 cell cytotoxicity, dose response, cytotoxicity control for non-replicating M. tuberculosis project (AID 489018); assay type: functional; details: Mycobacterium tuberculosis
[6] = Vero E6 cell cytotoxicity, dose response, cytotoxicity control for non-replicating M. tuberculosis project, secondary assay (AID 492998); assay type: functional, VeroE6; details: Vero C1008
[7] = biological target: T2, Short transient receptor potential channel 4 (Mus musculus, UniProt Q9QUQ5); assay: calcium entry via TRPC4 opening agents – cell-based, HEK293 TRPC4/mu-opioid, Fluo-4 calcium, dose response (AID 434937); assay type: functional
T2 sequence (Q9QUQ5 whole entry): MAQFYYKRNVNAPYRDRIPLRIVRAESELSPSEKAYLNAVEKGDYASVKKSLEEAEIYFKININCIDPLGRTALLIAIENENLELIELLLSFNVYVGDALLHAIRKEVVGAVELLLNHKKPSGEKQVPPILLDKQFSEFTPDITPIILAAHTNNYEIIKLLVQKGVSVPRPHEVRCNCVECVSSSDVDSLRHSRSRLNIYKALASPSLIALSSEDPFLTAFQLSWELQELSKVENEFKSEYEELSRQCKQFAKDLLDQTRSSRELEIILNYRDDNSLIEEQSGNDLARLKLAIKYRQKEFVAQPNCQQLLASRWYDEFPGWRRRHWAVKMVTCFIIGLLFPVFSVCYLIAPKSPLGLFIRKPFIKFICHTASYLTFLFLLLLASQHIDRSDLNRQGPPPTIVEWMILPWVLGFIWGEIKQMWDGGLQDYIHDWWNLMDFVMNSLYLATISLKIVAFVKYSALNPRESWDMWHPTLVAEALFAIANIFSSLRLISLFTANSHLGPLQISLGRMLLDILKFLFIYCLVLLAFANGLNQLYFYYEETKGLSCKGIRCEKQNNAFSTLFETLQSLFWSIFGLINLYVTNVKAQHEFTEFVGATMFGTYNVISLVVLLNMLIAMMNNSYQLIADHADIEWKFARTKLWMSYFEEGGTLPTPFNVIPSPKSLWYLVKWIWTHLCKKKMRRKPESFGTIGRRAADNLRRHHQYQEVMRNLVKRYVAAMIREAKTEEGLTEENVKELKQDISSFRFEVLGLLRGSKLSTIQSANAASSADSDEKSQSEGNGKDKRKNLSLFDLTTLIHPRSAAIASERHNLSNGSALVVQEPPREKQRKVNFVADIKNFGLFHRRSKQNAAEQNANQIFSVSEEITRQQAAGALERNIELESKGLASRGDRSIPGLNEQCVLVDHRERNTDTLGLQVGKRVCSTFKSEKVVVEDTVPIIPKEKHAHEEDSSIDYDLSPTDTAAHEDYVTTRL

cells = assay type: functional
[8] = biological target: T1, Serine/threonine-protein phosphatase; assay: Fluorescence Cell-Based Secondary Assay to Identify Inhibitors of Calcineurin. [Related pubchem assays (depositor defined):AID1979, AID2007]; assay type: functional
[9] = biological target: ATP-dependent molecular chaperone HSP82 (Candida albicans (strain WO-1) (Yeast), UniProt C4YTQ8); assay: steroid-induced GRE reporter decrease in yeast – S. cerevisiae, luminescence, Hsp90 inhibitor project, dose response (AID 2400); assay type: functional, cell-based;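 further: beta-galactosidase luminescence from glucocorticoid response element reporter as proxy for Hsp90 function; inhibitor potency where signal loss means Hsp90 inhibition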
Cytochrome P450 2C19 = Cytochrome P450 2C19 (Homo sapiens, UniProt P33261); assay: Cytochrome panel assay with activity outcomes. Panel member name: p450-cyp2c19 Compounds with AC50 equal or less than 10 uM are considered active; assay type: functional
Cytochrome P450 2D6 = Cytochrome P450 2D6 (Homo sapiens, UniProt P10635);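 further: CYP2D6 member of a cytochrome P450 panel assay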
Cytochrome P450 1A2 = biological target: T3, Cytochrome P450 1A2 (Homo sapiens, UniProt P05177);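 further: PubChem cytochrome P450 panel assay, CYP1A2 panel member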
T3 sequence (P05177 whole entry): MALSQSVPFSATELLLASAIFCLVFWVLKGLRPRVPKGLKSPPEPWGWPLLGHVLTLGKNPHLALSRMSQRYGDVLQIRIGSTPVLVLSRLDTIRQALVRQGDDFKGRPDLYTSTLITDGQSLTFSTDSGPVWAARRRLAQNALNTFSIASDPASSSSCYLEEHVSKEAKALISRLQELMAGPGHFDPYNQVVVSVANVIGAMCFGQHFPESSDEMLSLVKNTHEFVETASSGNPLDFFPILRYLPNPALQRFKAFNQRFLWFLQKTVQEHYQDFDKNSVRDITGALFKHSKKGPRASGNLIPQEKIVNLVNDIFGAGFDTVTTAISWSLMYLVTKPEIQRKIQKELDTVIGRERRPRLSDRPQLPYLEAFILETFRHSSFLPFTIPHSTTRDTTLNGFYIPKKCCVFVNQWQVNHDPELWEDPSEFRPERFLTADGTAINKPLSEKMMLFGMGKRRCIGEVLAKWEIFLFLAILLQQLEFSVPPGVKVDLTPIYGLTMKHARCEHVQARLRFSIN

Cytochrome P450 3A4 = Cytochrome P450 3A4 (Homo sapiens, UniProt P08684);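 further: CYP3A4 tested as one member of a cytochrome P450 panel screen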
Cytochrome P450 2C9 = Cytochrome P450 2C9 (Homo sapiens, UniProt P11712)
[10] = biological target: Sphingosine 1-phosphate receptor 1 (Homo sapiens, UniProt P21453); assay: Fluorescence-based counterscreen assay for S1P4 agonists: Cell-based dose response high throughput screening assay to identify agonists of the Sphingosine 1-Phosphate Receptor 1 (S1P1). [Related pubchem assays (depositor defined):AID1509, AID1523, AID1801, AID463107, AID463118, AID463119, AID463122, AID463123, AID463129, AID463225, AID504400, AID504460]; assay type: functional
[11] = biological target: T4, Sphingosine 1-phosphate receptor 4 (Homo sapiens, UniProt O95977); assay: Fluorescence dose response cell-based high throughput screening assay for agonists of the Sphingosine 1-Phosphate Receptor 4 (S1P4). [Related pubchem assays: 1509 (Primary screen.), 1523 (Confirmation screen in triplicates.)]; assay type: functional
T4 sequence (O95977 whole entry): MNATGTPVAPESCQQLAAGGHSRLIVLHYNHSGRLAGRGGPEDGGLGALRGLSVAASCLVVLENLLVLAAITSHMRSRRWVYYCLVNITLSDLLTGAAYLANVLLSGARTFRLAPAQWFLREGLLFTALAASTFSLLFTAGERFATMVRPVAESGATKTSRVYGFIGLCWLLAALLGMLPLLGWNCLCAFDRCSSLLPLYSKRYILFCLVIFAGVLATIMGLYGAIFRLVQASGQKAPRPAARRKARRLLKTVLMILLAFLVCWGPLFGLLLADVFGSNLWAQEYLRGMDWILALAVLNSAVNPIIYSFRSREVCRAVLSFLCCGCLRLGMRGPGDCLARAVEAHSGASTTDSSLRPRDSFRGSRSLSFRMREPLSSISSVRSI

[12] = biological target: Voltage-dependent T-type calcium channel subunit alpha-1H (Homo sapiens, UniProt O95180); assay type: functional;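 further: channel activity triggered by adding a high calcium stimulation buffer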
[13] = biological target: Eukaryotic translation initiation factor 4E (Mus musculus, UniProt P63073); assay: blockers of eIF4G binding by eIF4E – biochemical, TR-FRET, dose response (AID 855); assay type: functional;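 further: potency for disrupting eIF4E binding to eIF4GI seen as loss of FRET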
[14] = biological target: T5, Delta-type opioid receptor (Homo sapiens, UniProt P41143); assay: HTS Image-Based Screen for Antagonists of the DOR Receptor. [Related pubchem assays (depositor defined):AID1777, AID1785, AID1786, AID2133]; assay type: functional
Mu-type opioid receptor = Mu-type opioid receptor (Homo sapiens, UniProt P35372); assay: HTS Image-Based Screen for Agonists of the MOR Receptor. [Related pubchem assays (depositor defined):AID1777, AID1785, AID1786, AID2133]; assay type: functional;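 further: imaging of beta-arrestin GFP recruitment into spots after receptor activation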
[15] = biological target: T5, Delta-type opioid receptor; assay: HTS Image-Based Screen for Agonists of the DOR Receptor. [Related pubchem assays (depositor defined):AID1777, AID1786, AID2133]; assay type: functional
[16] = biological target: T6, Kappa-type opioid receptor (Homo sapiens, UniProt P41145); assay type: functional
Beta-galactosidase = Beta-galactosidase (Escherichia coli, UniProt Q8VNN2); assay type: functional
[17] = biological target: T6, Kappa-type opioid receptor; assay type: functional; remark: listed apart in the source
Salmon testes DNA = assay: acridine orange-DNA binding displacement – biochemical, fluorescence polarization, cherry-picked samples, set 2, artefact control for KSHV LANA DNA-binding inhibitor project, dose response (AID 504727); parameters: species or system Salmonidae
ORF 73 = ORF 73 (Human herpesvirus 8, UniProt O40947); assay: KSHV LANA DNA-binding disruption – biochemical, fluorescence polarization, cherry-picked samples, dose response (AID 504725); parameters: species or system Human gammaherpesvirus 8;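 further: fluorescence polarization of a labeled DNA duplex reporting LANA DNA binding; potency is for inhibitors that block LANA binding to the DNA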
[18] = biological target: UDP-galactopyranose mutase (Mycobacterium tuberculosis, UniProt P9WIQ1); assay: Inhibitors of Mycobacterium tuberculosis UDP-galactopyranose mutase (UGM) enzyme Measured in Biochemical System Using Plate Reader - 2105-02_Inhibitor_Dose_CherryPick_Activity. [Related pubchem assays (depositor defined):AID504439]
Tumor necrosis factor = Tumor necrosis factor (Homo sapiens, UniProt P01375); assay: analog potency on TNFa NF-kB signaling – cell-based, revised, SAR follow-up (AID 2337); assay type: functional
[19] = biological target: Nucleotide-binding oligomerization domain-containing protein 1 (Homo sapiens, UniProt Q9Y239); assay: blockers of NOD1 pathway activity – revised, SAR follow-up (AID 2333); assay type: functional
[20] = biological target: Nucleotide-binding oligomerization domain-containing protein 2 (Homo sapiens, UniProt Q9HC29); assay: PubChem AID 2334; assay type: functional
HEK293 = assay: cells; details: Homo sapiens;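 further: cells exposed to compound for 14 hours overnight before viability readout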

T6 sequence (P41145 whole entry): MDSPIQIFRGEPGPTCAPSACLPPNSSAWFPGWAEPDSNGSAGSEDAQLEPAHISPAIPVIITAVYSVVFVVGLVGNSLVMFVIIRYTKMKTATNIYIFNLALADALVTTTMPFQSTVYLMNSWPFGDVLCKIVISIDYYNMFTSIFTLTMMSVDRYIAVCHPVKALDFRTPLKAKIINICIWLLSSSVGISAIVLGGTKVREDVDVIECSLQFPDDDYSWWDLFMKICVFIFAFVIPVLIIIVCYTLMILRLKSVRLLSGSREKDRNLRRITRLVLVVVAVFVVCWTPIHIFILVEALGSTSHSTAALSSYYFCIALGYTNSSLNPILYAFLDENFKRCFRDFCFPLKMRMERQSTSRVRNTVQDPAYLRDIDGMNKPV
T5 sequence (P41143 whole entry): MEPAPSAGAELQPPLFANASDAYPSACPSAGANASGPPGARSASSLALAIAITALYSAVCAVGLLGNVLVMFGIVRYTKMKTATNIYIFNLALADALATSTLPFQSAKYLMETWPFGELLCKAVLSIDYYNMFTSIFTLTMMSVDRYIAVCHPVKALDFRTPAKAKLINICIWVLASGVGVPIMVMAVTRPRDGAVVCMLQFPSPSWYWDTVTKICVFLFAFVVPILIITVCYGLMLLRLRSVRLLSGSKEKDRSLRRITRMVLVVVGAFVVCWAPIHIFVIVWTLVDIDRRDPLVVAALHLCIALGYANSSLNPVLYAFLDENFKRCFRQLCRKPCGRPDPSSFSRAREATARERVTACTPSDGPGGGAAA
Sequence of Mu-type opioid receptor (P35372 whole entry): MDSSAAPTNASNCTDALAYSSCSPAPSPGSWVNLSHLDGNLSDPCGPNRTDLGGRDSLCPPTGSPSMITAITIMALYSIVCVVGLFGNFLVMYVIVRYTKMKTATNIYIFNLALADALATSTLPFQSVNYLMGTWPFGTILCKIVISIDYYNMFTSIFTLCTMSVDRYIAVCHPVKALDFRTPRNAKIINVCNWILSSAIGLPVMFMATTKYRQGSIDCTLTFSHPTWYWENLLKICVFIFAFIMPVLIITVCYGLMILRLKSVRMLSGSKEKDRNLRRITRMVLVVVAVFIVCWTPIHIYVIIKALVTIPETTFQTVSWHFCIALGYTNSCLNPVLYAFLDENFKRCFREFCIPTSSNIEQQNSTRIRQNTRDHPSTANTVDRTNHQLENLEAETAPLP
Sequence of UDP-galactopyranose mutase (P9WIQ1 whole entry): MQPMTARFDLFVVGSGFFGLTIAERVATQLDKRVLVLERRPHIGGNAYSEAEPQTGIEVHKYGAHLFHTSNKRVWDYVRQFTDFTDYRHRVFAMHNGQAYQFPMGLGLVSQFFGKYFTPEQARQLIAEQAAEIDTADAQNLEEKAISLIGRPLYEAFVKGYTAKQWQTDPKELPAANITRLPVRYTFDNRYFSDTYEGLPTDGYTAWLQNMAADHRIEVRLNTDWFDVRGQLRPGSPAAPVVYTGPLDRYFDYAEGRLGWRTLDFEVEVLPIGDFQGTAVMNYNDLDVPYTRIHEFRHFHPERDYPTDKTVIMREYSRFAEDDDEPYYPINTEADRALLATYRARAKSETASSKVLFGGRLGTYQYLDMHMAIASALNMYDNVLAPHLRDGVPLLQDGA
Sequence of Eukaryotic translation initiation factor 4E (P63073 whole entry): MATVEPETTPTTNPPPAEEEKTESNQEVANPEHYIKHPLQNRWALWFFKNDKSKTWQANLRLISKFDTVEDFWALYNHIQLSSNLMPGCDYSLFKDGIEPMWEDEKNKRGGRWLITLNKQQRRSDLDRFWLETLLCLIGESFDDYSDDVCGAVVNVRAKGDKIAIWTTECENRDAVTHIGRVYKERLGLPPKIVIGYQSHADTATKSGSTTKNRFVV
Sequence of Voltage-dependent T-type calcium channel subunit alpha-1H (O95180 whole entry): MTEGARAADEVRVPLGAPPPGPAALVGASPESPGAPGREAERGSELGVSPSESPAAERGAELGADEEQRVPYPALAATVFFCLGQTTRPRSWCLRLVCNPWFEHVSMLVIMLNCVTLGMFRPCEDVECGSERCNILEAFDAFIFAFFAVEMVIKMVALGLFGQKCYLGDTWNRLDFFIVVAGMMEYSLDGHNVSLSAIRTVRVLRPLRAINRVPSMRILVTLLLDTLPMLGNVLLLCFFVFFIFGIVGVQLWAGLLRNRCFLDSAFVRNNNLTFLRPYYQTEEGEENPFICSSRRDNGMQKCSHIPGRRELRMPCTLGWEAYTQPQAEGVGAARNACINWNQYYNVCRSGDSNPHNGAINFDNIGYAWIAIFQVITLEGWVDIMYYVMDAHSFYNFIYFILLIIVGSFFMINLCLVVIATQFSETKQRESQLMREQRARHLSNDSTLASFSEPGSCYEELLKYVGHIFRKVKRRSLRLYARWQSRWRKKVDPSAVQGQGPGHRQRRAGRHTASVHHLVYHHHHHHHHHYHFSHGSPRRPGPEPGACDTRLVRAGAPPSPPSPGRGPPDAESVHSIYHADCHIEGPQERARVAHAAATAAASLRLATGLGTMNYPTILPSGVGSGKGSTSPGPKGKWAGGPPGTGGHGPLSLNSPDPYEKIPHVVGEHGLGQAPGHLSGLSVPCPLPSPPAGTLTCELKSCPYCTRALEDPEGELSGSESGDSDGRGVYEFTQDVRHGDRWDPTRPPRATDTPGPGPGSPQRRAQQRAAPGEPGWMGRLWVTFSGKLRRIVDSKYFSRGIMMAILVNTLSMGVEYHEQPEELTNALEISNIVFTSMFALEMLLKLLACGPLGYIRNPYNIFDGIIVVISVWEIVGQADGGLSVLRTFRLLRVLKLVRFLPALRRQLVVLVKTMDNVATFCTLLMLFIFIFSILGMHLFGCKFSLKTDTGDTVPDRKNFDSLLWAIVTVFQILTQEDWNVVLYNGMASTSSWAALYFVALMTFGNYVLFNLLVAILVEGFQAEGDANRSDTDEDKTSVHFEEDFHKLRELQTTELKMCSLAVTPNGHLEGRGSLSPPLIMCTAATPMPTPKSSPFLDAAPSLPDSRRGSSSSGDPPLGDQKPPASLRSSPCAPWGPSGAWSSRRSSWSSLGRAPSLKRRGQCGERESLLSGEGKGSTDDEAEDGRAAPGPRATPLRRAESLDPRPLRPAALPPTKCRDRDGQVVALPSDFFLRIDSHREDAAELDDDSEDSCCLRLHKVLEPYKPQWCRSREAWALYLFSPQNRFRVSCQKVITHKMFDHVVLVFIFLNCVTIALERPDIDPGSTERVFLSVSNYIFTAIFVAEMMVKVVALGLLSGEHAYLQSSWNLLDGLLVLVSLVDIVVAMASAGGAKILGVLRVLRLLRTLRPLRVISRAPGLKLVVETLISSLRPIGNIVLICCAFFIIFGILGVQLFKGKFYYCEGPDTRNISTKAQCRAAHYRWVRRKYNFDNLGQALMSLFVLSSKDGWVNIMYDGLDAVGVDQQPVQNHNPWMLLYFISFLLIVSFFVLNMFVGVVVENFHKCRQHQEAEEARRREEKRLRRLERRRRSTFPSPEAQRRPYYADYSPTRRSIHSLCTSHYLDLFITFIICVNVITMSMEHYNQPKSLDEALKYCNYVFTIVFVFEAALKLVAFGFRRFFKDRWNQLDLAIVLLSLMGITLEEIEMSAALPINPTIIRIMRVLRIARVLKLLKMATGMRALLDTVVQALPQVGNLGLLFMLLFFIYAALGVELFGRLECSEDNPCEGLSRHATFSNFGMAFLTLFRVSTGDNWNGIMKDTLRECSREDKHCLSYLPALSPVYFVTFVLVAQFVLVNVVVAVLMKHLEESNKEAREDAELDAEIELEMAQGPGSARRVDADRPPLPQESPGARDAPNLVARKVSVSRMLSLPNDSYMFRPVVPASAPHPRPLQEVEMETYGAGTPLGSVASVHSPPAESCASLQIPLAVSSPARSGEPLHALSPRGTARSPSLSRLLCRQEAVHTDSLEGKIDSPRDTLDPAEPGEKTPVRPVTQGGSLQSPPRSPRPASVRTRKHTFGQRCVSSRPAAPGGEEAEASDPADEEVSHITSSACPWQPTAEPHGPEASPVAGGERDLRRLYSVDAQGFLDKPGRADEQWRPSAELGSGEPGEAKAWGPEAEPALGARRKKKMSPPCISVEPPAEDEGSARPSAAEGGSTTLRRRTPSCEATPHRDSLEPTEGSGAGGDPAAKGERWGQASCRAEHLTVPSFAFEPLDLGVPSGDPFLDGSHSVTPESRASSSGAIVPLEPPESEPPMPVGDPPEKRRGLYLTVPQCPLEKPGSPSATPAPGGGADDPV
Sequence of Cytochrome P450 2C9 (P11712 whole entry): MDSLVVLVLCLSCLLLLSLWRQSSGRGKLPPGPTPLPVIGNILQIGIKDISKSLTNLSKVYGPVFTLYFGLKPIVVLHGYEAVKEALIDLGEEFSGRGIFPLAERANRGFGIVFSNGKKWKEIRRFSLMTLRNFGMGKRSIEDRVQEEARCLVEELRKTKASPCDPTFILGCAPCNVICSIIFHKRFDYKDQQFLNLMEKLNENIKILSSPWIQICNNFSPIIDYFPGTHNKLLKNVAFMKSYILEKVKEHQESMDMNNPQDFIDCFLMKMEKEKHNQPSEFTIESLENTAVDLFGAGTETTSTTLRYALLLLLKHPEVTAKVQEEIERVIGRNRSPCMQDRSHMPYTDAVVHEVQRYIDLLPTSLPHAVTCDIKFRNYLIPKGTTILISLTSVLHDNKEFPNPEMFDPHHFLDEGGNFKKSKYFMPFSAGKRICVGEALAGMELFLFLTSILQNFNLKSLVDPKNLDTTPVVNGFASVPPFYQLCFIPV
Sequence of Tumor necrosis factor (P01375 whole entry, the tested form may be a part): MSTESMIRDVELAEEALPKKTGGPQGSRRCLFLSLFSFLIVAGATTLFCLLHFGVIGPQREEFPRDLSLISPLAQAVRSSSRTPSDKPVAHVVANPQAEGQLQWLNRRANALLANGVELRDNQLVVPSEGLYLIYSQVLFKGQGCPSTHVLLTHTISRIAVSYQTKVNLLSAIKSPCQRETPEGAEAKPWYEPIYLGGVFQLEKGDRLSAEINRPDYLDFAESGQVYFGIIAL

In the case of O=c1c2cc(Br)ccc2nc(-c2cccc(C(F)(F)F)c2)n1O, the EC50 [1] is reported as 15.5 µM (inconclusive), the EC50 [2] is reported as 0.451 µM (active) and the EC50 [3] is reported as 28.1 µM (active). The CC50 [4] was 13.9 µM (active), the CC50 [5] was 15.8 µM (active) and the CC50 [6] was 11.6 µM (active). For the same compound, the EC50 [7] was 5.96 µM (active), the IC50 (cells) was 8.38 µM (active) and the EC50 [8] was 17.3 µM (active). For the same compound, the EC50 [9] was 4.04 µM (active).

In the case of O=C(O[C@H]1C[N@+]2(Br)CC[C@@H]1CC2)C(O)(c1ccccc1)c1ccccc1, the AC50 (Cytochrome P450 2C19) is reported as “inactive”, the AC50 (Cytochrome P450 2D6) is reported as “inactive” and the AC50 (Cytochrome P450 1A2) is reported as “inactive”. For the same compound, the AC50 (Cytochrome P450 3A4) was “inactive” and the AC50 (Cytochrome P450 2C9) was “inactive”.

In the case of CCOc1ccccc1OCCCCCc1c(C)n[nH]c1C, the EC50 [10] is reported as > 49.8 µM (inactive), the EC50 [11] is reported as > 49.8 µM (not active) and the EC50 [12] is reported as 8.55 µM (active). For the same compound, the IC50 [13] was > 64 µM (inactive).

For CCc1nc2sc3c(Cl)ncnc3c2c2c1CCCC2, the IC50 [14] was > 32 µM (inactive), the EC50 (Mu-type opioid receptor) was > 32 µM (inactive) and the EC50 [15] was > 32 µM (inactive). For the same compound, the IC50 [16] was 5.42 µM (active), the EC50 (Beta-galactosidase) was > 31.5 µM (inactive) and the IC50 [17] was greater than 32 µM.

For Cn1cc(/C=C2\C(=O)NC(=O)N(c3ccccc3)C2=O)c2ccccc21, the AC50 (Salmon testes DNA) was 92.2 µM (active), the AC50 (ORF 73) was 41.3 µM (active) and the AC50 [18] was 71.9 µM (active).

With O=C(Nc1nc2ccccc2n1Cc1ccccc1Cl)c1cccs1 the IC50 (Tumor necrosis factor) was > 20 µM (inactive), the IC50 [19] was > 20 µM (inactive) and the IC50 [20] was > 20 µM (inactive). The IC50 (HEK293) was > 20 µM (inactive).
